Data on 17 compounds can be found in patent publication US20250179073A1, “TRICYCLIC HETEROCYCLE COMPOUNDS AS IAP ANTAGONISTS” (Ascentage Pharma (Suzhou) Co., Ltd., priority 2022, published 2025).

One test concerns MDA-MB-231 cells. The test can be described thus: Cell proliferation assay (CellTiter-Glo), MDA-MB-231. The format is cell-based. The conditions noted are these: Homo sapiens, MDA-MB-231, 72 h, 72 h treatment, Celltiter-Glo luminescence. The essentials:
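MDA-MB-231 (RPMI-1640/10% FBS) and EVSA-T (MEM/10% FBS) cells, 10000 cells/well, exposed 72 h to compound at […]. Viability read by CellTiter-Glo luminescence after 15 min at room temperature. IC50 from control-normalised curve fitting.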

Another test has as its system EVSA-T cells. The test can be described thus: Cell proliferation assay (CellTiter-Glo), EVSA-T. The class given is cell-based. The conditions noted are these: Homo sapiens, EVSA-T, 72 h, 72 h treatment, Celltiter-Glo luminescence. The procedure: Example 238: Cell Proliferation Assay
MDA-MB-231 and EVSA-T cells (10000 cells/well) were plated onto 96-well plates (Corning, Cat #3917) in 95 μL of medium (RPMI-1640 containing 10% FBS and MEM containing 10% FBS, respectively). Compounds with various concentrations ([…]) were added to the wells. After treatment for 72 h, 30 μL of Celltiter-Glo reagent (Promega, Cat #G7573) was added and incubated at room temperature for 15 min, then the luminescent signal was determined using a microplate reader (Biotek, SynergyH1). The inhibitor dose-response curves were analyzed using normalized IC50 regression curve fitting with control based normalization.

Regarding `C[C@@H]1CN(CC(=O)N2CC(C)(C)c3c2cc([C@H](O)c2ccc(F)cc2)c2ncnn32)[C@@H](CN2CCOC[C@H]2C)CN1` [Compound 134, 1-(4-((R)-(4-fluorophenyl)(hydroxy)methyl)-8,8-dimethyl-7,8-dihydro-6H-pyrrolo[2,3-e][1,2,4]triazolo[1,5-a]pyridin-6-yl)-2-((2R,5R)-5-methyl-2-(((R)-3-methylmorpholino)methyl)piperazin-1-yl)ethan-1-one], the IC50 in the test with MDA-MB-231 cells amounted to 190 nM; with EVSA-T cells, 83 nM.
As for `Cc1nc2c(Cc3ccc(F)cc3)cc3c(n2n1)C(C)(C)CN3C(=O)CN1C[C@@H](C)NC[C@@H]1CN1CCOC[C@H]1C` [Compound 36, 1-(4-(4-fluorobenzyl)-2,8,8-trimethyl-7,8-dihydro-6H-pyrrolo[2,3-e][1,2,4]triazolo[1,5-a]pyridin-6-yl)-2-((2R,5R)-5-methyl-2-(((R)-3-methylmorpholino)methyl)piperazin-1-yl)ethan-1-one], the IC50 was found to be 36 nM in the test on MDA-MB-231 cells and 2 nM in the test with EVSA-T cells.
For `C[C@@H]1CN(CC(=O)N2CC(C)(C)c3c2cc(Cc2ccc(F)cc2)c2nc(C4(O)CC4)nn32)[C@@H](CN2CCOC[C@H]2C)CN1` [Compound 244, 1-(4-(4-fluorobenzyl)-2-(1-hydroxycyclopropyl)-8,8-dimethyl-7,8-dihydro-6H-pyrrolo[2,3-e][1,2,4]triazolo[1,5-a]pyridin-6-yl)-2-((2R,5R)-5-methyl-2-(((R)-3-methylmorpholino)methyl)piperazin-1-yl)ethan-1-one] the same measures were 3 nM and 4.6 nM.
Take `C[C@@H]1CN(CC(=O)N2CC(C)(C)c3c2cc(Cc2ccc(F)cc2)c2nc(C(F)(F)F)cn32)[C@@H](CN2CCN(CC(F)(F)F)C[C@H]2C)CN1` [Compound 179, 1-(4-(4-fluorobenzyl)-8,8-dimethyl-2-(trifluoromethyl)-7,8-dihydro-6H-imidazo[1,2-a]pyrrolo[2,3-e]pyridin-6-yl)-2-((2R,5R)-5-methyl-2-(((R)-2-methyl-4-(2,2,2-trifluoroethyl)piperazin-1-yl)methyl)piperazin-1-yl)ethan-1-one]: the figures for the IC50 with MDA-MB-231 cells and with EVSA-T cells were 180 nM and 15 nM, respectively.
Take `C[C@@H]1CN(CC(=O)N2CC(C)(C)c3c2cc(Cc2ccc(F)cc2)c2n[nH]c(=O)n32)[C@@H](CN2CCOC[C@H]2C)CN1` [Compound 152, 4-(4-fluorobenzyl)-8,8-dimethyl-6-(2-((2R,5R)-5-methyl-2-(((R)-3-methylmorpholino)methyl)piperazin-1-yl)acetyl)-2,6,7,8-tetrahydro-1H-pyrrolo[2,3-e][1,2,4]triazolo[4,3-a]pyridin-1-one]: the IC50 turned out to be 170 nM in the test on MDA-MB-231 cells and 30 nM with EVSA-T cells.
For `CC(=O)c1nc2c(Cc3ccc(F)cc3)cc3c(n2n1)C(C)(C)CN3C(=O)CN1C[C@@H](C)NC[C@@H]1CN1CCOC[C@H]1C` [Compound 224, 1-(2-acetyl-4-(4-fluorobenzyl)-8,8-dimethyl-7,8-dihydro-6H-pyrrolo[2,3-e][1,2,4]triazolo[1,5-a]pyridin-6-yl)-2-((2R,5R)-5-methyl-2-(((R)-3-methylmorpholino)methyl)piperazin-1-yl)ethan-1-one] the same measures were 120 nM and 2 nM.
On the same counts, the results for `C[C@@H]1CN(CC(=O)N2CC(C)(C)c3c2cc(Cc2ccc(F)cc2)c2nc(C(F)(F)F)cn32)[C@@H](CN2[C@H](C)COC[C@H]2C)CN1` [Compound 161, 2-((2R,5R)-2-(((3R,5R)-3,5-dimethylmorpholino)methyl)-5-methylpiperazin-1-yl)-1-(4-(4-fluorobenzyl)-8,8-dimethyl-2-(trifluoromethyl)-7,8-dihydro-6H-imidazo[1,2-a]pyrrolo[2,3-e]pyridin-6-yl)ethan-1-one] are 120 nM and 30 nM.
On the same counts, the results for `C[C@@H]1CN(CC(=O)N2CC(C)(C)c3c2cc(Cc2ccc(F)cc2)c2nc(C(=O)NC4CC4)nn32)[C@@H](CN2CCOC[C@H]2C)CN1` [Compound 257, N-cyclopropyl-4-(4-fluorobenzyl)-8,8-dimethyl-6-(2-((2R,5R)-5-methyl-2-(((R)-3-methylmorpholino)methyl)piperazin-1-yl)acetyl)-7,8-dihydro-6H-pyrrolo[2,3-e][1,2,4]triazolo[1,5-a]pyridine-2-carboxamide] are 140 nM and 11.6 nM.
With `C[C@@H]1CN(CC(=O)N2CC(C)(C)c3c2cc(Cc2cccc(F)c2)c2ncnn32)[C@@H](CN2CCOC[C@H]2C)CN1` [Compound 39, 1-(4-(3-fluorobenzyl)-8,8-dimethyl-7,8-dihydro-6H-pyrrolo[2,3-e][1,2,4]triazolo[1,5-a]pyridin-6-yl)-2-((2R,5R)-5-methyl-2-(((R)-3-methylmorpholino)methyl)piperazin-1-yl)ethan-1-one], the IC50 is 150 nM in the test on MDA-MB-231 cells and 34 nM in the test on EVSA-T cells.
Regarding `C[C@@H]1CN(CC(=O)N2CC(C)(C)c3c2cc(Cc2ccc(F)cc2)c2nn(Cc4ccncn4)c(=O)n32)[C@@H](CN2CCOC[C@H]2C)CN1` [Compound 246, 4-(4-fluorobenzyl)-8,8-dimethyl-6-(2-((2R,5R)-5-methyl-2-(((R)-3-methylmorpholino)methyl)piperazin-1-yl)acetyl)-2-(pyrimidin-4-ylmethyl)-2,6,7,8-tetrahydro-1H-pyrrolo[2,3-e][1,2,4]triazolo[4,3-a]pyridin-1-one], the IC50 in the test with MDA-MB-231 cells worked out at 4 nM; with EVSA-T cells, 3.5 nM.
Consider `COc1nc2c(Cc3ccc(F)cc3)cc3c(n2n1)C(C)(C)CN3C(=O)CN1C[C@@H](C)NC[C@@H]1CN1CCOC[C@H]1C` [Compound 126, 1-(4-(4-fluorobenzyl)-2-methoxy-8,8-dimethyl-7,8-dihydro-6H-pyrrolo[2,3-e][1,2,4]triazolo[1,5-a]pyridin-6-yl)-2-((2R,5R)-5-methyl-2-(((R)-3-methylmorpholino)methyl)piperazin-1-yl)ethan-1-one], for which the IC50 in the test with MDA-MB-231 cells came to 20 nM; in the test with EVSA-T cells it was 3 nM.
On the same counts, the results for `C[C@@H]1CN(CC(=O)N2CC(C)(C)c3c2cc(Cc2ccc(F)cc2)c2ncnn32)[C@@H](CN2Cc3ccncc3C2=O)CN1` [Compound 97, 2-(((2R,5R)-1-(2-(4-(4-fluorobenzyl)-8,8-dimethyl-7,8-dihydro-6H-pyrrolo[2,3-e][1,2,4]triazolo[1,5-a]pyridin-6-yl)-2-oxoethyl)-5-methylpiperazin-2-yl)methyl)-1,2-dihydro-3H-pyrrolo[3,4-c]pyridin-3-one] are 47 nM and 3 nM.
For `C[C@@H]1CN(CC(=O)N2CC(C)(C)c3c2cc(Cc2ccc(F)cc2)c2nc(C(F)(F)F)cn32)[C@@H](CN2CCN(C3COC3)C[C@H]2C)CN1` [Compound 181, 1-(4-(4-fluorobenzyl)-8,8-dimethyl-2-(trifluoromethyl)-7,8-dihydro-6H-imidazo[1,2-a]pyrrolo[2,3-e]pyridin-6-yl)-2-((2R,5R)-5-methyl-2-(((R)-2-methyl-4-(oxetan-3-yl)piperazin-1-yl)methyl)piperazin-1-yl)ethan-1-one] the same measures were 97 nM and 15 nM.
On the same counts, the results for `C[C@@H]1CN(CC(=O)N2CC(C)(C)c3c2cc(Cc2ccc(F)cc2)c2ncnn32)[C@@H](CN2Cc3cccc(F)c3C2=O)CN1` [Compound 207, 7-fluoro-2-(((2R,5R)-1-(2-(4-(4-fluorobenzyl)-8,8-dimethyl-7,8-dihydro-6H-pyrrolo[2,3-e][1,2,4]triazolo[1,5-a]pyridin-6-yl)-2-oxoethyl)-5-methylpiperazin-2-yl)methyl)isoindolin-1-one] are 20 nM and 2 nM.
With `C[C@@H]1CN(CC(=O)N2CC(C)(C)c3c2cc(Cc2ccc(F)cc2)c2cnnn32)[C@@H](CN2CCOC[C@H]2C)CN1` [Compound 128, 1-(4-(4-fluorobenzyl)-8,8-dimethyl-7,8-dihydro-6H-pyrrolo[2,3-e][1,2,3]triazolo[1,5-a]pyridin-6-yl)-2-((2R,5R)-5-methyl-2-(((R)-3-methylmorpholino)methyl)piperazin-1-yl)ethan-1-one], the IC50 turned out to be 12 nM in the test with MDA-MB-231 cells and 2 nM with EVSA-T cells.
On the same counts, the results for `C[C@@H]1CN(CC(=O)N2CC(C)(C)c3c2cc(Cc2ccc(F)cc2)c2nc(C(F)(F)F)cn32)[C@@H](CN2CCOC[C@H]2C)CN1` [Compound 116, 1-(4-(4-fluorobenzyl)-8,8-dimethyl-2-(trifluoromethyl)-7,8-dihydro-6H-imidazo[1,2-a]pyrrolo[2,3-e]pyridin-6-yl)-2-((2R,5R)-5-methyl-2-(((R)-3-methylmorpholino)methyl)piperazin-1-yl)ethan-1-one] are 93 nM and 19 nM.
For `C[C@@H]1CN(CC(=O)N2CC(C)(C)c3c2cc(Cc2ccc(F)cc2)c2ncnn32)[C@@H](CN2CCN(CC#N)C[C@H]2C)CN1` [Compound 182, 2-((R)-4-(((2R,5R)-1-(2-(4-(4-fluorobenzyl)-8,8-dimethyl-7,8-dihydro-6H-pyrrolo[2,3-e][1,2,4]triazolo[1,5-a]pyridin-6-yl)-2-oxoethyl)-5-methylpiperazin-2-yl)methyl)-3-methylpiperazin-1-yl)acetonitrile] the same measures were 17 nM and 2 nM.
